Results on three compounds are retold here after ChEMBL document CHEMBL1909046, “DrugMatrix in vitro pharmacology data”.

The first data set addresses T1, C-X-C chemokine receptor type 2 (Homo sapiens, UniProt P25025).
T1 sequence (P25025 whole entry): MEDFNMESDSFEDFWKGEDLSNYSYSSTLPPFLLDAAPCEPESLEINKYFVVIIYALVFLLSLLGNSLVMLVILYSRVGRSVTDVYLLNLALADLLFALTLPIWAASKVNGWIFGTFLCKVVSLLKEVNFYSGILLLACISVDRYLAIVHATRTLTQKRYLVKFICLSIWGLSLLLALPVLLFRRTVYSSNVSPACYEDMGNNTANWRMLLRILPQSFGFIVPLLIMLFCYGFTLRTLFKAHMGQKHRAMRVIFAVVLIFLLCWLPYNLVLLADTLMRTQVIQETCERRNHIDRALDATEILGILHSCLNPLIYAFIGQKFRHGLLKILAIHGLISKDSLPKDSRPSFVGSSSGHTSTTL
Assay: not given
Type of data set: cell membranes, Membrane. The conditions noted are these: cho-k1.
As to `CCN[C@@H]1C[C@H](N)[C@@H](O[C@H]2OC(CN)=CC[C@H]2N)[C@H](O)[C@H]1O[C@H]1OC[C@](C)(O)[C@H](NC)[C@H]1O` [NETILMICIN], the IC50 result was “Not Active”.
Still for that read-out and setting: for `COC(=O)C1=C(C)NC(C)=C(C(=O)OCC(C)C)C1c1ccccc1[N+](=O)[O-]` (stereo unspecified) [NISOLDIPINE] the value was “Not Active”.
Consider `CCOC(=O)C1=C(C)NC(C)=C(C(=O)OC)C1c1cccc([N+](=O)[O-])c1` (stereo unspecified) [NITRENDIPINE], for which the IC50 entry was “Not Active”.

Test system in another data set: not listed separately
Briefly: DRUGMATRIX: GABAA, Chloride Channel, TBOB radioligand binding (ligand: [3H] TBOB). Type of data set: cell membranes, Rattus norvegicus, Wistar, Cerebral cortex, Membrane. The note with it: Not Active = under 50% inhibition at 10 µM.
As to `CCN[C@@H]1C[C@H](N)[C@@H](O[C@H]2OC(CN)=CC[C@H]2N)[C@H](O)[C@H]1O[C@H]1OC[C@](C)(O)[C@H](NC)[C@H]1O` [NETILMICIN], the IC50 result was “Not Active” and the Ki entry is recorded as “Not Active”.
Take `COC(=O)C1=C(C)NC(C)=C(C(=O)OCC(C)C)C1c1ccccc1[N+](=O)[O-]` (stereo unspecified) [NISOLDIPINE]: the IC50 entry is given as “Not Active” and the Ki entry is “Not Active”.
In the case of `CCOC(=O)C1=C(C)NC(C)=C(C(=O)OC)C1c1cccc([N+](=O)[O-])c1` (stereo unspecified) [NITRENDIPINE], the IC50 result is listed as “Not Active” and the Ki entry was “Not Active”.

The target of a further data set is Insulin receptor (Rattus norvegicus, UniProt P15127). Note: in other assays of this panel Not Active means under 50% inhibition at 10 µM.
Sequence of Insulin receptor (P15127 27-759 limits assumed): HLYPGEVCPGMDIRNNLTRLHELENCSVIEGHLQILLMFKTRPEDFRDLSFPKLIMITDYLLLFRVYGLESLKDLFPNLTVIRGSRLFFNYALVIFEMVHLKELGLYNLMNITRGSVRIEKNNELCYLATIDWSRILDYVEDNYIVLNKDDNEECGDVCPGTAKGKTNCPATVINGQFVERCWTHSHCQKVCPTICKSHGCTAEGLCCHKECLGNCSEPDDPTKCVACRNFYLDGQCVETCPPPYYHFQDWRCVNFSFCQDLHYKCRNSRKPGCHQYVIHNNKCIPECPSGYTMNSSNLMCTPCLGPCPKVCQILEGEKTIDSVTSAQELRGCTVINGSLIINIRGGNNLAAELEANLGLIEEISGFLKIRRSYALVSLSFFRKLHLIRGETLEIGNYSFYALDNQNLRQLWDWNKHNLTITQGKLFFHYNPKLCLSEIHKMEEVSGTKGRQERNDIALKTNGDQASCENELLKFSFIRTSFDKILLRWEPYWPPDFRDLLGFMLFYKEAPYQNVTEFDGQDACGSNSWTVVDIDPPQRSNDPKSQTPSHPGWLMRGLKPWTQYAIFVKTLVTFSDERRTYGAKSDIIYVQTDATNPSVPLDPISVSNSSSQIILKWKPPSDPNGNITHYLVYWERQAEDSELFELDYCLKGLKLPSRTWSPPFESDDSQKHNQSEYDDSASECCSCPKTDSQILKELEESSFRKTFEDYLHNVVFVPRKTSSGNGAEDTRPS
Sequence of Insulin receptor (P15127 764-1383 limits assumed): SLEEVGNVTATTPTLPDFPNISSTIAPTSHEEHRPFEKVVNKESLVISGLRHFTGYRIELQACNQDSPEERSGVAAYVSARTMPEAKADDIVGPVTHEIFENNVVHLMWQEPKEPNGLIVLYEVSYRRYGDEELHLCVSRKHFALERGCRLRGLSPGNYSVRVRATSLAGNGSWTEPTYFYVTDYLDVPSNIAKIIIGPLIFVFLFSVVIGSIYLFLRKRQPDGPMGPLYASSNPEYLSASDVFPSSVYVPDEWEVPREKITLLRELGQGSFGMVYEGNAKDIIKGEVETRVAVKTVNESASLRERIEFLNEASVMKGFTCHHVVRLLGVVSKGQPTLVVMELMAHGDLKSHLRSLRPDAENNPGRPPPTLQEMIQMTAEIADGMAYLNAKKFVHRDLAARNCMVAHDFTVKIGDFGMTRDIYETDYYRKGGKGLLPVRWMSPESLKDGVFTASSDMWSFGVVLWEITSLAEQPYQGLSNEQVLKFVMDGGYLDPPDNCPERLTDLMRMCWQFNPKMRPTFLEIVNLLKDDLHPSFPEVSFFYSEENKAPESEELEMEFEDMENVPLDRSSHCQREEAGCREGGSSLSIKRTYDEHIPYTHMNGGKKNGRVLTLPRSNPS
Assay: not given
Type of data set: cell membranes, Wistar, Liver, Membrane.
Conditions: not given
As for `CCN[C@@H]1C[C@H](N)[C@@H](O[C@H]2OC(CN)=CC[C@H]2N)[C@H](O)[C@H]1O[C@H]1OC[C@](C)(O)[C@H](NC)[C@H]1O` [NETILMICIN], the IC50 result is “Not Active”.
Same read-out and setting: for `COC(=O)C1=C(C)NC(C)=C(C(=O)OCC(C)C)C1c1ccccc1[N+](=O)[O-]` (stereo unspecified) [NISOLDIPINE] the value was “Not Active”; for `CCOC(=O)C1=C(C)NC(C)=C(C(=O)OC)C1c1cccc([N+](=O)[O-])c1` (stereo unspecified) [NITRENDIPINE], “Not Active”.

The target in another data set is Melanocortin receptor 4 (Homo sapiens, UniProt P32245). Note: in other assays of this panel Not Active means under 50% inhibition at 10 µM.
Sequence of Melanocortin receptor 4 (P32245 whole entry): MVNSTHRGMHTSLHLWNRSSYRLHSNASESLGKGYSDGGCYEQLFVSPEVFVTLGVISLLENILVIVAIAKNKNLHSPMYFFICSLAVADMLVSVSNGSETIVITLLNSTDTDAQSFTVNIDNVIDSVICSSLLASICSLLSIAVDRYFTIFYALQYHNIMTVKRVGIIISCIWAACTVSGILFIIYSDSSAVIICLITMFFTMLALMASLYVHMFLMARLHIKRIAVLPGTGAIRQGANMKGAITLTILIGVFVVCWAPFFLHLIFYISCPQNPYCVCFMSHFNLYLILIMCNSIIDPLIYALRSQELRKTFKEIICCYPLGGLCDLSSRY
Assay: not given
Type of data set: cell membranes, Membrane. The note with it: hek293.
In the case of `CCN[C@@H]1C[C@H](N)[C@@H](O[C@H]2OC(CN)=CC[C@H]2N)[C@H](O)[C@H]1O[C@H]1OC[C@](C)(O)[C@H](NC)[C@H]1O` [NETILMICIN], the IC50 result was “Not Active”.
On the same count and under the same terms, for `COC(=O)C1=C(C)NC(C)=C(C(=O)OCC(C)C)C1c1ccccc1[N+](=O)[O-]` (stereo unspecified) [NISOLDIPINE] the value was “Not Active”.
On the same count and under the same terms, for `CCOC(=O)C1=C(C)NC(C)=C(C(=O)OC)C1c1cccc([N+](=O)[O-])c1` (stereo unspecified) [NITRENDIPINE] the value was “Not Active”.

Test system in a further data set: not listed separately
Nature of the data set: DRUGMATRIX: Phosphodiesterase PDE3 enzyme inhibition (substrate: [3H]cAMP + cAMP). Type of data set: tissue-based, Homo sapiens. The conditions noted are these: platelet; Not Active = under 50% inhibition at 10 µM.
Consider `CCN[C@@H]1C[C@H](N)[C@@H](O[C@H]2OC(CN)=CC[C@H]2N)[C@H](O)[C@H]1O[C@H]1OC[C@](C)(O)[C@H](NC)[C@H]1O` [NETILMICIN], for which the IC50 entry is on record as “Not Active” and the Ki entry was “Not Active”.
As for `COC(=O)C1=C(C)NC(C)=C(C(=O)OCC(C)C)C1c1ccccc1[N+](=O)[O-]` (stereo unspecified) [NISOLDIPINE], the IC50 result is listed as “Not Active” and the Ki entry was “Not Active”.
Consider `CCOC(=O)C1=C(C)NC(C)=C(C(=O)OC)C1c1cccc([N+](=O)[O-])c1` (stereo unspecified) [NITRENDIPINE], for which the IC50 result is given as “Not Active” and the Ki result is on record as “Not Active”.

A further data set deals with Receptor tyrosine-protein kinase erbB-2 (Homo sapiens, UniProt P04626). Nature of the data set: biochemical. The conditions noted are these: insect cells. Type of data set: cell-based, Insect cells.
Sequence of Receptor tyrosine-protein kinase erbB-2 (P04626 whole entry): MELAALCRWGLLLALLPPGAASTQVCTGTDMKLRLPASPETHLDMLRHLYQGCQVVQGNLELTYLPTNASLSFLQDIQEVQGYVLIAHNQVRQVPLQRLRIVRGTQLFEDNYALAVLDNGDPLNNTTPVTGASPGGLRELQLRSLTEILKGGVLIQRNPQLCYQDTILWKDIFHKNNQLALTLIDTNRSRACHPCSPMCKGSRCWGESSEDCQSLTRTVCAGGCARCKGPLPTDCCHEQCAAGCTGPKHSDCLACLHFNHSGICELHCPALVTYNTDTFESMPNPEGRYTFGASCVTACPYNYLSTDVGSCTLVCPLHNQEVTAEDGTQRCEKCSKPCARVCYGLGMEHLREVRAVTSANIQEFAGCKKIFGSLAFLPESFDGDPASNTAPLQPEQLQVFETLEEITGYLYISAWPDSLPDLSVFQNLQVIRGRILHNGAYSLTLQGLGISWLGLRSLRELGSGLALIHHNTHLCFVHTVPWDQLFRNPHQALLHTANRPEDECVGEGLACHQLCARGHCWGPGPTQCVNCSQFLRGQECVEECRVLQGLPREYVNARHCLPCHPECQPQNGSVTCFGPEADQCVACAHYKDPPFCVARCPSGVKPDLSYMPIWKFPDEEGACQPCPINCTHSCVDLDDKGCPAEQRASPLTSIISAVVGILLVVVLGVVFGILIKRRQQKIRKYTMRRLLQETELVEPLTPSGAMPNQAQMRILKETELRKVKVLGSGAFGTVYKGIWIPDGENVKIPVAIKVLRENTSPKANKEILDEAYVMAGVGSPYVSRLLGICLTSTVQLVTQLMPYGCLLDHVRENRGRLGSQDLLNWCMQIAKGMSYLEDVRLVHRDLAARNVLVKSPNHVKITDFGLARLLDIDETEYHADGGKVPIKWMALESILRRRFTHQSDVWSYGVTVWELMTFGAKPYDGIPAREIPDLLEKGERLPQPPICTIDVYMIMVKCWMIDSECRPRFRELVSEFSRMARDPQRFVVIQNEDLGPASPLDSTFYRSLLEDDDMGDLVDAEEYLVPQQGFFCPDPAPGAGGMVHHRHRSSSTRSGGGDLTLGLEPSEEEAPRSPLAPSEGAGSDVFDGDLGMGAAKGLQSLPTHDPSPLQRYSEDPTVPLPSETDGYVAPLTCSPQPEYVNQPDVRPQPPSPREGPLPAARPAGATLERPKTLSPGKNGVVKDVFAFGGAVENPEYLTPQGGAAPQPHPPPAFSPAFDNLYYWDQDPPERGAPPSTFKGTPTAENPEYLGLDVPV
As to `CCN[C@@H]1C[C@H](N)[C@@H](O[C@H]2OC(CN)=CC[C@H]2N)[C@H](O)[C@H]1O[C@H]1OC[C@](C)(O)[C@H](NC)[C@H]1O` [NETILMICIN], the IC50 result is “Not Active”.
On to `COC(=O)C1=C(C)NC(C)=C(C(=O)OCC(C)C)C1c1ccccc1[N+](=O)[O-]` (stereo unspecified) [NISOLDIPINE], for which the IC50 entry is reported as “Not Active”.
Consider `CCOC(=O)C1=C(C)NC(C)=C(C(=O)OC)C1c1cccc([N+](=O)[O-])c1` (stereo unspecified) [NITRENDIPINE], for which the IC50 entry was “Not Active”.

The target in the next data set is T2, Receptor-type tyrosine-protein phosphatase C (Homo sapiens, UniProt P08575).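 Note: inhibition of CD45 enzyme activity measured using DiFMUP as substrate; in other assays of this panel Not Active means under 50% inhibition at 10 µM.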
T2 sequence (P08575 whole entry): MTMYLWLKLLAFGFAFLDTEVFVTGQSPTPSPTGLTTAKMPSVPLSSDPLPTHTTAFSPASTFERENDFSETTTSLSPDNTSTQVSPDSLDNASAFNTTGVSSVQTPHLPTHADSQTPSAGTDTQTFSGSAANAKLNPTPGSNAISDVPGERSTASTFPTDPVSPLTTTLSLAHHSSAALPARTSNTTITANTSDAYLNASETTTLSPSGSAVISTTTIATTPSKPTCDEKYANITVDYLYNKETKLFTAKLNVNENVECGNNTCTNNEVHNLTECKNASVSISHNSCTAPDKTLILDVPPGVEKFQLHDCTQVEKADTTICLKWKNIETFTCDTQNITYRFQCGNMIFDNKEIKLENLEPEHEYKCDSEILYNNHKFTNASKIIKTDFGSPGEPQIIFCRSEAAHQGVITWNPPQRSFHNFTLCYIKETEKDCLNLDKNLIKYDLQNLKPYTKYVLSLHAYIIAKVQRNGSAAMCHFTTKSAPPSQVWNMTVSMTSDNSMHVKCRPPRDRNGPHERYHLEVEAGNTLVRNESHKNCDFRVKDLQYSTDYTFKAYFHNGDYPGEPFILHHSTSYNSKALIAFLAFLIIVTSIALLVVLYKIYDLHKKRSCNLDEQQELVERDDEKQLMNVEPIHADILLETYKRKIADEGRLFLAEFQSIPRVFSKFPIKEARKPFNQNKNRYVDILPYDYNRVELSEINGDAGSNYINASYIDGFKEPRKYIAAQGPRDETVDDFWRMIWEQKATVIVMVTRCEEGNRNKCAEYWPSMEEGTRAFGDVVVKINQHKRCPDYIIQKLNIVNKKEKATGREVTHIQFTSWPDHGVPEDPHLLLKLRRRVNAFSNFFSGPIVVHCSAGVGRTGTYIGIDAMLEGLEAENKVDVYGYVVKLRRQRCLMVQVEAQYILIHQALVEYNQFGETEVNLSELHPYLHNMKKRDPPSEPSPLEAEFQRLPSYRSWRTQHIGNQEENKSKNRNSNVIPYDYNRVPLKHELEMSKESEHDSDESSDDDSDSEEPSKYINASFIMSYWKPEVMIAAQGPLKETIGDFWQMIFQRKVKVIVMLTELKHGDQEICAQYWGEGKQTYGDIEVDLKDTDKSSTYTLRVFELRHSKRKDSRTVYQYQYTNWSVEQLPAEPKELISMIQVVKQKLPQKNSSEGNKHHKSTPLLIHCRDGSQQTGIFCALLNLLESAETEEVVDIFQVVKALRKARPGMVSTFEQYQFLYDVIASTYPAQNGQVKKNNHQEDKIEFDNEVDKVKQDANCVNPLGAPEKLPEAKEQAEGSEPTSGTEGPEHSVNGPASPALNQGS
Assay: not given
The arrangement: species or system Escherichia coli.
Conditions: not given
Regarding `CCN[C@@H]1C[C@H](N)[C@@H](O[C@H]2OC(CN)=CC[C@H]2N)[C@H](O)[C@H]1O[C@H]1OC[C@](C)(O)[C@H](NC)[C@H]1O` [NETILMICIN], the IC50 entry is given as “Not Active”.
Same read-out and setting: the result for `COC(=O)C1=C(C)NC(C)=C(C(=O)OCC(C)C)C1c1ccccc1[N+](=O)[O-]` (stereo unspecified) [NISOLDIPINE] reads “Not Active”.
For the compound `CCOC(=O)C1=C(C)NC(C)=C(C(=O)OC)C1c1cccc([N+](=O)[O-])c1` (stereo unspecified) [NITRENDIPINE], the IC50 entry was “Not Active”.

For a further data set, the target named is Cytochrome P450 2E1 (Homo sapiens, UniProt P05181). Note: in other assays of this panel Not Active means under 50% inhibition at 10 µM.
Sequence of Cytochrome P450 2E1 (P05181 whole entry): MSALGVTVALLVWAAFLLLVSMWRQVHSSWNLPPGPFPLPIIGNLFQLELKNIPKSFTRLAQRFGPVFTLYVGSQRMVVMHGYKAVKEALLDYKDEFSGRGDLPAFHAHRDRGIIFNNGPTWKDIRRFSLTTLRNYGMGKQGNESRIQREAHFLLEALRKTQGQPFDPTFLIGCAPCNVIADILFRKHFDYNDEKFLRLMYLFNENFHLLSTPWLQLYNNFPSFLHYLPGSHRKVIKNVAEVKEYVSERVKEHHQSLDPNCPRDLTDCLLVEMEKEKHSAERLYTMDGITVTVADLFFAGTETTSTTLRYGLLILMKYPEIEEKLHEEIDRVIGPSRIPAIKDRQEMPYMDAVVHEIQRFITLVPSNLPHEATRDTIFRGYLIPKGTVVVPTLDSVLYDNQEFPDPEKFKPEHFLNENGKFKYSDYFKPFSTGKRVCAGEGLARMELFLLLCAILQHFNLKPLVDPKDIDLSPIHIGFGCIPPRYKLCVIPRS
Assay: not given
The conditions noted are these: bti-tn-5b1-4.
Regarding `CCN[C@@H]1C[C@H](N)[C@@H](O[C@H]2OC(CN)=CC[C@H]2N)[C@H](O)[C@H]1O[C@H]1OC[C@](C)(O)[C@H](NC)[C@H]1O` [NETILMICIN], the IC50 entry was “Not Active” and the Ki entry is reported as “Not Active”.
With `COC(=O)C1=C(C)NC(C)=C(C(=O)OCC(C)C)C1c1ccccc1[N+](=O)[O-]` (stereo unspecified) [NISOLDIPINE], the IC50 entry was “Not Active” and the Ki entry is given as “Not Active”.
As to `CCOC(=O)C1=C(C)NC(C)=C(C(=O)OC)C1c1cccc([N+](=O)[O-])c1` (stereo unspecified) [NITRENDIPINE], the IC50 entry is “Not Active” and the Ki result is “Not Active”.

The next data set deals with T3, Estrogen receptor (Homo sapiens, UniProt P03372).
T3 sequence (P03372 whole entry): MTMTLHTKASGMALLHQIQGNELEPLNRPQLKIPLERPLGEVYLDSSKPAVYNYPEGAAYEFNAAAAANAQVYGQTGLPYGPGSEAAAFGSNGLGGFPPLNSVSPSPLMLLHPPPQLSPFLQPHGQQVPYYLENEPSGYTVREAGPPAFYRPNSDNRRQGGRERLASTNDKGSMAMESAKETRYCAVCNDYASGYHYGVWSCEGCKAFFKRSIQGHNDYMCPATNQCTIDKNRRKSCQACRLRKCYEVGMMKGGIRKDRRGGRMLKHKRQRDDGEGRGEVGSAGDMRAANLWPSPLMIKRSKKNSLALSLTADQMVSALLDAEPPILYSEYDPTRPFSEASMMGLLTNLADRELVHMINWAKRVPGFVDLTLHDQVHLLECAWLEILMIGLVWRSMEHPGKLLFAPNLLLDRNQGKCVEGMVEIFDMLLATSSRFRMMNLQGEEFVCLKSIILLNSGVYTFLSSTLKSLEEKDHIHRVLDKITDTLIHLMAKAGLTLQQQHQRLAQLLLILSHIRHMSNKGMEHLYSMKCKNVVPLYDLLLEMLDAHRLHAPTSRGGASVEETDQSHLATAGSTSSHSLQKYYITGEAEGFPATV
Assay: not given
The note with it: sf9.
On to `CCN[C@@H]1C[C@H](N)[C@@H](O[C@H]2OC(CN)=CC[C@H]2N)[C@H](O)[C@H]1O[C@H]1OC[C@](C)(O)[C@H](NC)[C@H]1O` [NETILMICIN], for which the IC50 result is “Not Active”.
On the same count and under the same terms, for `COC(=O)C1=C(C)NC(C)=C(C(=O)OCC(C)C)C1c1ccccc1[N+](=O)[O-]` (stereo unspecified) [NISOLDIPINE] the value was “Not Active”.
On the same count and under the same terms, the result for `CCOC(=O)C1=C(C)NC(C)=C(C(=O)OC)C1c1cccc([N+](=O)[O-])c1` (stereo unspecified) [NITRENDIPINE] reads “Not Active”.
